Numbered stars: 1 amine (or outer) side, 2 acyl side, 3 side chain; on linkers, the order of the positions; unused ones are H or OH. Square brackets hold non-standard residues; d marks the D form. Peptide text beside a SMILES is read from it. * marks the point of attachment. X4 = O=C([C@@H]1Cc2ccc(OP(=O)(O)O)cc2CN1[*:1])[*:2]; pY = N[C@@H](Cc1ccc(OP(=O)(O)O)cc1)C(=O)O; X7 = O=C(Cc1c[nH]c2ccc(OP(=O)(O)O)cc12)*; aThr = C[C@H](O)[C@H](N)C(=O)O

In the assay the target is Signal transducer and activator of transcription 3 (Homo sapiens, UniProt P40763). Put plainly: Inhibition of Stat3 by fluorescence polarization assay. A general note: Fluorescence polarisation rises when a labelled molecule tumbles more slowly, as on binding a larger partner.
Chain of Signal transducer and activator of transcription 3 (P40763 whole entry): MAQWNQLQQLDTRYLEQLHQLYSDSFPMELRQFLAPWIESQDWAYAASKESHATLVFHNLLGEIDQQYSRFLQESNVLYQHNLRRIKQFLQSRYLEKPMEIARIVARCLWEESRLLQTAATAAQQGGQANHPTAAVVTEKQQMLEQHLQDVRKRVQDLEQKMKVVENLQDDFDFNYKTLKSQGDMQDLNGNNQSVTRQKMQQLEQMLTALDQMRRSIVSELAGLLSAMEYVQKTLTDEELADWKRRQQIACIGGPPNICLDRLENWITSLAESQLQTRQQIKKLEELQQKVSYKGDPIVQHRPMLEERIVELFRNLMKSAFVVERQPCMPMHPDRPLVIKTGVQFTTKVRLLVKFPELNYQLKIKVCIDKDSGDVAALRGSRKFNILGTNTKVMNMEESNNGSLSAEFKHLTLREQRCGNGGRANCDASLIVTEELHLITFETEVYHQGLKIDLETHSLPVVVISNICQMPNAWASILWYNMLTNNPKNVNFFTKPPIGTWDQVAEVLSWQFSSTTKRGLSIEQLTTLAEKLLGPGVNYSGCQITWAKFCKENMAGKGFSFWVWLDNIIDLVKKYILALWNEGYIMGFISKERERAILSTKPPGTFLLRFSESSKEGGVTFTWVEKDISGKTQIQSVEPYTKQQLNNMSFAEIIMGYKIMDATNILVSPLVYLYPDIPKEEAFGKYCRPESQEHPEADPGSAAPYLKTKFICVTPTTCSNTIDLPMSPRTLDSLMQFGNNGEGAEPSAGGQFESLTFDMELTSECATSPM
For `CC(C)C[C@H](NC(=O)/C=C/c1ccc(OP(=O)(O)O)cc1)C(=O)N1CCC[C@H]1C(=O)N[C@@H](CCC(N)=O)C(=O)NCc1ccccc1`, the IC50 was determined as 138 nM.
The figure for `NC(=O)CC[C@H](NC(=O)[C@@H]1CC[C@@H]2CC[C@H](NC(=O)/C=C/c3ccc(OP(=O)(O)O)cc3)C(=O)N21)C(=O)NCc1ccccc1` is 604 nM; for `CC(C)NC(=O)[C@H](CCC(N)=O)NC(=O)[C@@H]1Cc2cccc3c2N1C(=O)[C@@H](NC(=O)/C=C/c1ccc(OP(=O)(O)O)cc1)CC3` it is 305 nM; for `NC(=O)CC[C@H](NC(=O)[C@@H]1Cc2cccc3c2N1C(=O)[C@@H](NC(=O)/C=C/c1ccc(OP(=O)(O)O)cc1)CC3)C(N)=O` it is 233 nM.
The value for `NC(=O)CC[C@H](NC(=O)[C@@H]1Cc2cccc3c2N1C(=O)[C@@H](NC(=O)/C=C/c1ccc(OP(=O)(O)O)cc1)CC3)C(=O)NCc1ccccc1` was 162 nM.
The compound `NC(=O)CC[C@H](NC(=O)[C@@H]1Cc2cccc3c2N1C(=O)[C@@H](NC(=O)c1cc2cc(OP(=O)(O)O)ccc2[nH]1)CC3)C(=O)NCc1ccccc1` returned an IC50 of 190 nM.
The value for `CNC(=O)[C@H](CCC(N)=O)NC(=O)[C@@H]1Cc2cccc3c2N1C(=O)[C@@H](NC(=O)/C=C/c1ccc(OP(=O)(O)O)cc1)CC3` was 269 nM; that for `CS(=O)(=O)CC[C@H](NC(=O)[C@@H]1Cc2cccc3c2N1C(=O)[C@@H](NC(=O)/C=C/c1ccc(OP(=O)(O)O)cc1)CC3)C(N)=O` was 7030 nM.
`CCCC[C@H](NC(=O)[C@@H]1Cc2cccc3c2N1C(=O)[C@@H](NC(=O)/C=C/c1ccc(OP(=O)(O)O)cc1)CC3)C(N)=O`: half-maximal inhibition (IC50) was put at 19200 nM.
The compound `O=C(O)CCCNC(=O)[C@@H]1Cc2cccc3c2N1C(=O)[C@@H](NC(=O)/C=C/c1ccc(OP(=O)(O)O)cc1)CC3` returned an IC50 of 815 nM.
The figure for `C[C@H](NC(=O)[C@@H]1Cc2cccc3c2N1C(=O)[C@@H](NC(=O)/C=C/c1ccc(OP(=O)(O)O)cc1)CC3)C(N)=O` is 25100 nM.
The figure for `COC(=O)[C@H](CCC(N)=O)NC(=O)[C@@H]1Cc2cccc3c2N1C(=O)[C@@H](NC(=O)/C=C/c1ccc(OP(=O)(O)O)cc1)CC3` is 141 nM; for `C[S+]([O-])CC[C@H](NC(=O)[C@@H]1Cc2cccc3c2N1C(=O)[C@@H](NC(=O)/C=C/c1ccc(OP(=O)(O)O)cc1)CC3)C(N)=O` (some centres not stated) it is 7600 nM.
The value for `NC(=O)CC[C@H](NC(=O)[C@H]1CC[C@H]2CC[C@H](NC(=O)/C=C/c3ccc(OP(=O)(O)O)cc3)C(=O)N21)C(=O)NCc1ccccc1` was 59800 nM.
Take `NC(=O)CC[C@H](NC(=O)[C@@H]1CC[C@H]2CC[C@H](NC(=O)/C=C/c3ccc(OP(=O)(O)O)cc3)C(=O)N21)C(=O)NCc1ccccc1`: half-maximal inhibition (IC50) required 45700 nM.
As to `NC(=O)CC[C@H](NC(=O)[C@@H]1Cc2cccc3c2N1C(=O)[C@@H](NC(=O)/C=C/c1ccc(OP(=O)(O)O)cc1)C=C3)C(=O)NCc1ccccc1`, the IC50 was 195 nM.
Consider `NC(=O)CC[C@H](NC(=O)[C@@H]1Cc2cccc3c2N1C(=O)[C@@H](NC(=O)/C=C/c1ccc(OP(=O)(O)O)cc1)CC3)C(=O)O`, for which half-maximal inhibition (IC50) required 359 nM.
The value for `NC(=O)[C@@H]1Cc2cccc3c2N1C(=O)[C@@H](NC(=O)/C=C/c1ccc(OP(=O)(O)O)cc1)CC3` was 35600 nM.
The figure for `NC(=O)C1CCN(C(=O)[C@@H]2Cc3cccc4c3N2C(=O)[C@@H](NC(=O)/C=C/c2ccc(OP(=O)(O)O)cc2)CC4)C1` (some centres not stated) is 595 nM.
The figure for `CC(=O)N1Cc2cc(OP(=O)(O)O)ccc2C[C@H]1C(=O)N[C@@H](CC(C)C)C(=O)N1CCC[C@H]1C(=O)N[C@@H](CCC(N)=O)C(=O)N[C@H](C(N)=O)[C@@H](C)O` (Ac-[X4]LPQT-NH2) is more than 100000 nM.
`CC(=O)N[C@@H](Cc1ccc(OP(=O)(O)O)cc1)C(=O)N[C@@H](CC(C)C)C(=O)N1CCC[C@H]1C(=O)N[C@@H](CCC(N)=O)C(=O)N[C@H](C(N)=O)[C@H](C)O` (Ac-[pY]LPQ[aThr]-NH2) registered an IC50 of 739 nM.
`CC(C)C[C@H](NC(=O)Cc1c[nH]c2ccc(OP(=O)(O)O)cc12)C(=O)N1CCC[C@H]1C(=O)N[C@@H](CCC(N)=O)C(=O)N[C@H](C(N)=O)[C@@H](C)O` (X7-LPQT-NH2): the IC50 is more than 100000 nM.

The term IC50 denotes the midpoint of a concentration-inhibition curve.

The values are drawn from ChEMBL document CHEMBL1153822, “Conformationally constrained peptidomimetic inhibitors of signal transducer and activator of transcription. 3: Evaluation and molecular modeling” (J Med Chem, 2009).
